{
  "source": "patent US5364629A",
  "about": "“Device and method for enhanced administration of physostigmine” (priority 1991, dated 1994)",
  "origin": "cited, not measured here",
  "key": {"[1]": {"conditions": "tablets"}, "[2]": {"conditions": "systemic use"}, "[3]": {"conditions": "American Journal of Psychiatry, July 1979"}, "[4]": {"conditions": "Davis, et al, Science, Volume 201, p. 272 (1978)"}, "[5]": {"conditions": "early observation, myasthenia gravis background"}},
  "data": [
    {"smiles": "CNC(=O)Oc1ccc2c(c1)[C@]1(C)CCN(C)[C@@H]1N2C", "note": "[Physostigmine, physostigmine]", "values": [
      {"measurement": "drug blood levels for multiple oral doses", "setting": "[1]", "result": "ranging from a maximum above the required level (and possibly in the toxic range) to a minimum which may be below the effective dose"},
      {"measurement": "therapeutic window", "setting": "[2]", "result": "narrow therapeutic window"},
      {"measurement": "effect on tardive dyskinesia", "setting": "[3]", "result": "positive: therapeutic effect on tardive dyskinesia"},
      {"measurement": "retrieval of information from long-term memory", "setting": "[4]", "result": "retrieval of information from long-term memory was also improved"},
      {"measurement": "storage of information into long-term memory", "setting": "[4]", "result": "significantly enhanced storage of information into long-term memory"},
      {"measurement": "strength of muscular contraction", "setting": "[5]", "result": "increased strength of muscular contraction"}
    ]}
  ]
}
